Drawing on patent US8829007B2 (priority 2009, dated 2014), this text covers EC50 and IC50 for 24 compounds.

For test [1], the system named is A/PR/8/34 influenza virus. Kind of test: microbe, parasite or virus in culture. In kind it is cell-based.
For test [2], the system named is influenza A virus (A/PR/8/34). Kind of test: microbe, parasite or virus in culture. In kind it is cell-based.
[3] abbreviates: Influenza A virus, PR/8, MDCK, MDCK cells infected with A/PR/8/34, bDNA viral RNA, read-out: EC50 (mean all).
[4] abbreviates: Influenza A virus, PR/8, MDCK, MDCK cells infected with A/PR/8/34, cell protection (CPE), read-out: IC50 (mean all).
[5] abbreviates: Influenza A virus, PR/8, MDCK, bDNA assay, A/PR/8/34 influenza virus replication in MDCK cells, class symbols, read-out: EC50 (mean all).
[6] abbreviates: Influenza A virus, PR/8, MDCK, CPE assay, A/PR/8/34 infected MDCK cells, class symbols, read-out: IC50 (mean all).
Setting [7] is: Influenza A virus, PR/8, MDCK, mean all, A/PR/8/34 influenza virus in MDCK cells, bDNA assay, read-out: EC50.
Where [8] appears, read: Influenza A virus, PR/8, MDCK, mean all, A/PR/8/34 infected MDCK cells, CPE assay, read-out: IC50.
[9] abbreviates: Influenza A virus, PR/8, 30 h, HA(−) 30 hr, A/PR/8, bDNA, mean all, read-out: Cell Influenza HA(−) 30 hr A/PR/8 bDNA:bDNA EC50 uM(Mean (All)).
Setting [10] is: Influenza A virus, PR/8, MDCK, MDCK cells, A/PR/8/34, ATP readout, mean all, read-out: Cell Flu, MDCK protection, ATP (All: IC50: uM)(Mean (All)).
Setting [11] is: Influenza A virus, PR/8, mean all, A/PR/8/34 influenza virus replication, bDNA, read-out: EC50.
The mark [12] stands for this setting: Influenza A virus, PR/8, MDCK, mean all, A/PR/8/34 infected MDCK cells, cell protection (CPE), read-out: IC50.
Where [13] appears, read: Influenza A virus, PR/8, MDCK, MDCK cells infected with A/PR/8/34, replication of influenza virus (viral RNA, bDNA), class symbols, read-out: EC50 (mean all).
[14] abbreviates: Influenza A virus, PR/8, MDCK, MDCK cells infected with A/PR/8/34, survival of infected cells, class symbols, read-out: IC50 (mean all).

Each structure is given as a SMILES string. Read-outs that look alike come from different tables or passages of the source.

For `O=C(c1cc(F)ccc1F)N1CCC[C@H](CNc2nc(-c3c[nH]c4ncc(Cl)cc34)ncc2F)C1` [Compound 151], the EC50 in test [1] (setting [3]) was less than 5 µM. In addition, the IC50 in test [2] (setting [4]) was less than 5 µM.
With `COCC(O)CN[C@@H]1CCC[C@H](Nc2nc(-c3c[nH]c4ncc(Cl)cc34)ncc2F)C1` (stereo partly drawn) [Compound 610, 1-[[(1R,3S)-3-[[2-(5-chloro-1H-pyrrolo[2,3-b]pyridin-3-yl)-5-fluoro-pyrimidin-4-yl]amino]cyclohexyl]amino]-3-methoxy-propan-2-ol], the EC50 in test [1] (setting [5]) was greater than 3.3 µM. In addition, the IC50 in test [2] (setting [6]) was less than 5 µM.
With `O=S(=O)(CC(F)(F)F)N1CCCC[C@@H]1CNc1nc(-c2c[nH]c3ncc(Cl)cc23)ncc1F` [Compound 383, (R)-2-(5-chloro-1H-pyrrolo[2,3-b]pyridin-3-yl)-5-fluoro-N-((1-(2,2,2-trifluoro-ethylsulfonyl)-piperidin-2-yl)methyl)pyrimidin-4-amine], the EC50 in test [1] (setting [7]) is less than 5 µM. The IC50 in test [2] (setting [8]) is less than 5 µM.
Consider `O=C(C1CC1)N1CCC[C@H](CNc2nc(-c3c[nH]c4ncc(Cl)cc34)ncc2F)C1` [Compound 325, (R)-(3-((2-(5-chloro-1H-pyrrolo[2,3-b]pyridin-3-yl)-5-fluoropyrimidin-4-ylamino)methyl)piperidin-1-yl)(cyclopropyl)methanone], for which, in test [1] (setting [7]), the EC50 is less than 5 µM. Also, in test [2] (setting [8]), the IC50 is 5 to 20 µM.
Regarding `O[C@@H]1[C@H](O)CCC[C@@H]1Nc1nc(-c2c[nH]c3ncc(Cl)cc23)ncc1F` [Compound 632], the EC50 in test [1] (setting [5]) was less than 5 µM. Moreover, the IC50 in test [2] (setting [6]) was less than 5 µM.
With `O=S(=O)(CC1CCCC1)N1CCC[C@H](Nc2nc(-c3c[nH]c4ncc(Cl)cc34)ncc2F)C1` [Compound 392, (S)-2-(5-chloro-1H-pyrrolo[2,3-b]pyridin-3-yl)-N-(1-(cyclopentylmethylsulfonyl)piperidin-3-yl)-5-fluoropyrimidin-4-amine], the EC50 in test [1] (setting [7]) is less than 5 µM. In addition, the IC50 in test [2] (setting [8]) was less than 5 µM.
For the compound `O=C(NC1CC2CC(Nc3nc(-c4c[nH]c5ncc(F)cc45)ncc3F)C1C2)N1CCCC1` (single isomer, unassigned) [Compound 1045, N-[6-[[5-fluoro-2-(5-fluoro-1H-pyrrolo[2,3-b]pyridin-3-yl)pyrimidin-4-yl]amino]norbornan-2-yl]pyrrolidine-1-carboxamide], the EC50 in test [1] (setting [9]) was less than 5 µM. Further, the IC50 in test [2] (setting [10]) is less than 5 µM.
Take `CS(=O)(=O)N1CC[C@H](Nc2nc(-c3c[nH]c4ncc(Cl)cc34)ncc2F)C1` [Compound 398, (S)-2-(5-chloro-1H-pyrrolo[2,3-b]pyridin-3-yl)-5-fluoro-N-(1-(methylsulfonyl)pyrrolidin-3-yl)pyrimidin-4-amine]: the EC50 in test [1] (setting [7]) is less than 5 µM. Further, the IC50 in test [2] (setting [8]) was less than 5 µM.
On to `N=C(N)N1CCC[C@H](Nc2nc(-c3c[nH]c4ncc(Cl)cc34)ncc2F)C1` [Compound 881], for which the EC50 in test [1] (setting [11]) is greater than 3.3 µM. Moreover, the IC50 in test [2] (setting [12]) was greater than 10 µM.
As for `OC[C@H]1CC(Nc2nc(-c3c[nH]c4ncc(Cl)cc34)ncc2F)[C@H](O)[C@@H]1O` (stereo partly drawn) [Compound 657], in test [1] (setting [5]), the EC50 is greater than 3.3 µM. For the same compound, in test [2] (setting [6]), the IC50 is greater than 10 µM.
With `CCNC(=O)C1CCCC(Nc2nc(-c3c[nH]c4ncc(Cl)cc34)ncc2F)C1O` (stereo not drawn) [Compound 815, 3-[[2-(5-chloro-1H-pyrrolo[2,3-b]pyridin-3-yl)-5-fluoro-pyrimidin-4-yl]amino]-N-ethyl-2-hydroxy-cyclohexanecarboxamide], the EC50 in test [1] (setting [11]) is less than 5 µM. In test [2] (setting [12]), the IC50 is less than 5 µM.
Regarding `CC(C)(CC(=O)O)CC(=O)N1CCC[C@H](CNc2nc(-c3c[nH]c4ncc(Cl)cc34)ncc2F)C1` [Compound 80, (R)-5-(3-((2-(5-chloro-1H-pyrrolo[2,3-b]pyridin-3-yl)-5-fluoropyrimidin-4-ylamino)methyl)piperidin-1-yl)-3,3-dimethyl-5-oxopentanoic acid], in test [1] (setting [3]), the EC50 is less than 5 µM. Moreover, the IC50 in test [2] (setting [4]) is less than 5 µM.
As to `COc1cccc(NC(=O)N2CCC[C@H](CNc3nc(-c4c[nH]c5ncc(Cl)cc45)ncc3F)C2)c1` [Compound 76, (R)-3-((2-(5-chloro-1H-pyrrolo[2,3-b]pyridin-3-yl)-5-fluoropyrimidin-4-ylamino)methyl)-N-(3-methoxyphenyl)piperidine-1-carboxamide], the EC50 in test [1] (setting [3]) is less than 5 µM. In addition, the half-inhibitory concentration (IC50) in test [2] (setting [4]) is less than 5 µM.
Regarding `N[C@@H]1CCCC[C@H]1Nc1nc(-c2c[nH]c3ncc(Cl)cc23)ncc1C(F)(F)F` [Compound 31, (1R,2R)—N1-(2-(5-chloro-1H-pyrrolo[2,3-b]pyridin-3-yl)-5-(trifluoromethyl)pyrimidin-4-yl)cyclohexane-1,2-diamine], the EC50 in test [1] (setting [3]) was less than 5 µM. The IC50 in test [2] (setting [4]) is less than 5 µM.
For `CN1CCC(Nc2nc(-c3c[nH]c4ncc(Cl)cc34)ncc2F)C1=O` (stereo not drawn) [Compound 379], in test [1] (setting [7]), the EC50 is less than 5 µM. Moreover, the IC50 in test [2] (setting [8]) is 5 to 20 µM.
On to `CC1(O)CCCCC1Nc1nc(-c2c[nH]c3ncc(Cl)cc23)ncc1F` (single isomer, unassigned) [Compound 563, 2-(2-(5-chloro-1H-pyrrolo[2,3-b]pyridin-3-yl)-5-fluoropyrimidin-4-ylamino)-1-methylcyclohexanol], for which the EC50 in test [1] (setting [13]) is less than 5 µM. For the same compound, in test [2] (setting [14]), the IC50 is less than 5 µM.
`CC(C)S(=O)(=O)N1CCC[C@H](Nc2nc(-c3c[nH]c4ncc(Cl)cc34)ncc2F)C1` [Compound 394, (S)-2-(5-chloro-1H-pyrrolo[2,3-b]pyridin-3-yl)-5-fluoro-N-(1-(isopropylsulfonyl)-piperidin-3-yl)pyrimidin-4-amine]: in test [1] (setting [7]), the EC50 was less than 5 µM. Also, in test [2] (setting [8]), the IC50 was less than 5 µM.
`CO[C@@H]1CCC[C@H](Nc2nc(-c3c[nH]c4ncc(Cl)cc34)ncc2F)[C@H]1O` [Compound 831, (1R,2S,6R)-2-(2-(5-chloro-1H-pyrrolo[2,3-b]pyridin-3-yl)-5-fluoropyrimidin-4-ylamino)-6-methoxycyclohexanol]: the EC50 in test [1] (setting [11]) is less than 5 µM. Besides, the IC50 in test [2] (setting [12]) was less than 5 µM.
For `NC(=O)N1CC(Nc2nc(-c3c[nH]c4ncc(Cl)cc34)ncc2F)C1` [Compound 512], the EC50 in test [1] (setting [13]) lay within 5 to 10 µM. Further, in test [2] (setting [14]), the IC50 is greater than 20 µM.
On to `O[C@H]1[C@H](O)CCCC[C@@H]1Nc1nc(-c2c[nH]c3ncc(F)cc23)ncc1F` [Compound 984], for which, in test [1] (setting [9]), the EC50 is less than 5 µM. Moreover, the IC50 in test [2] (setting [10]) is less than 5 µM.
In the case of `CCCS(=O)(=O)N1CCC[C@@H](Nc2nc(-c3c[nH]c4ncc(Cl)cc34)ncc2F)C1` [Compound 316, (R)-2-(5-chloro-1H-pyrrolo[2,3-b]pyridin-3-yl)-5-fluoro-N-(1-(propylsulfonyl)piperidin-3-yl)pyrimidin-4-amine], the EC50 in test [1] (setting [7]) was less than 5 µM. For the same compound, the IC50 in test [2] (setting [8]) was 5 to 20 µM.
For the compound `CCNC(=O)OC1CCCC(Nc2nc(-c3c[nH]c4ncc(Cl)cc34)ncc2F)C1` (single isomer, unassigned) [Compound 609], the EC50 in test [1] (bDNA assay, A/PR/8/34 influenza virus replication in MDCK cells, class symbols, read-out: EC50 (mean all)) is less than 5 µM. For the same compound, the IC50 in test [2] (CPE assay, A/PR/8/34 infected MDCK cells, class symbols, read-out: IC50 (mean all)) is less than 5 µM.
Turning to `CC(C)CC(=O)N1CCC[C@@H](Nc2nc(-c3c[nH]c4ncc(Cl)cc34)ncc2F)C1` [Compound 318], in test [1] (setting [7]), the EC50 was less than 5 µM. Further, in test [2] (setting [8]), the IC50 is greater than 20 µM.
As for `CCNC(=O)OC1(C)CCCC(Nc2nc(-c3c[nH]c4ncc(Cl)cc34)ncc2F)C1` (single isomer, unassigned) [Compound 722], in test [1] (mean all, bDNA viral RNA in MDCK cells infected with A/PR/8/34, read-out: EC50), the EC50 is less than 5 µM. Also, the IC50 in test [2] (mean all, MDCK cells infected with A/PR/8/34, cell protection (CPE), read-out: IC50) is less than 5 µM.
